Results reported in patent publication US12421212B2, “Substituted benzenecarboxamides as IL-17A modulators” (DiCE Alpha, Inc., priority 2019, dated 2025).

Biological target: T1, IL-17A/A (Homo sapiens, UniProt Q16552)
T1 construct: purchased Genscript Z03228
T1 sequence (Q16552 24-155): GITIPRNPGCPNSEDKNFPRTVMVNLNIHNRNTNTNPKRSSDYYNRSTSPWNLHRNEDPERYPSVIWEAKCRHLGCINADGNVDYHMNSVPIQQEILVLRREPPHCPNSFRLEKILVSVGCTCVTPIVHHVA
Assay: IL-17A/A HEK-Blue Cell Assay
Format: cell-based
Settings: HEK-Blue IL-17A reporter cell line, SEAP readout at A630, 20 hours incubation with IL-17A/A, top concentration 10 uM, 1 uM or 0.3 uM; for IC50: read-out: IL-17A/A inhibition (pIC50) (converted)

Q: `CCC(=O)N[C@@H](C(=O)N1CCN(C)CC1)[C@@H](C)c1ccc(NC(=O)C(NC(=O)c2ccnn2CC)C(C)c2ccccc2Cl)c(F)c1` (stereo partly drawn) [Compound 519] was tested. Which “IL-17A/A inhibition (pIC50)” value did it give?
A: X3a (compounds were evaluated up to 0.3 uM and did not inhibit activity by >80%, however they showed some activity at 0.3 uM (less than 80% and more than 20%))

Q: Which “IL-17A/A inhibition (pIC50)” value does the source give for `CCC(=O)N[C@@H](C(=O)N1CCN(C)CC1)[C@@H](C)c1ccc(NC(=O)C(NC(=O)c2ccnn2CC)C(C)c2ccccc2Cl)c(F)c1` (stereo partly drawn) [Compound 520] here?
A: X1b (compounds were evaluated up to 10 uM and inhibited activity at 10 uM by less than 20%)

Q: How did the IC50 turn out when `CCC(=O)N[C@@H](C(=O)N1CCN(C)CC1)[C@@H](C)c1ccc(NC(=O)C(NC(=O)c2nonc2CC)C(C)c2ccccc2Cl)c(F)c1` (stereo partly drawn) [Compound 521] was run?
A: 100 to 10000 nM

Q: How did the “IL-17A/A inhibition (pIC50)” value turn out when `CCC(=O)N[C@@H](C(=O)N1CCN(C)CC1)[C@@H](C)c1ccc(NC(=O)C(NC(=O)c2nonc2CC)C(C)c2ccccc2Cl)c(F)c1` (stereo partly drawn) [Compound 522] was run?
A: X1b (compounds were evaluated up to 10 uM and inhibited activity at 10 uM by less than 20%)

Q: With `CCC(=O)N[C@@H](C(=O)N1CCN(C)CC1)[C@@H](C)c1ccc(NC(=O)[C@@H](NC(=O)C(F)(F)c2cnn(CC)c2)[C@H]2CC[C@H](C)CC2)c(F)c1` [Compound 523] as the compound, how does the IC50 read?
A: < 10 nM

Q: `CCC(=O)N[C@@H](C(=O)N1CCN(C)CC1)[C@@H](C)c1ccc(NC(=O)[C@@H](NC(=O)c2occc2CC)[C@H]2CC[C@H](C)CC2)c(F)c1` [Compound 524] was tested. Which IC50 did it give?
A: 10 to 100 nM

Q: Which IC50 does the source give for `CCn1nnnc1C(=O)N[C@H](C(=O)Nc1ccc([C@H](C)[C@@H](NC(=O)c2cnns2)C(=O)N2CCN(C)CC2)cc1F)[C@H]1CC[C@H](C)CC1` [Compound 525] here?
A: 10 to 100 nM

Q: Which IC50 does the source give for `C[C@@H](c1ccc(NC(=O)[C@@H](NC(=O)c2coc3ccncc23)[C@H]2CC[C@H](C)CC2)c(F)c1)[C@@H](NC(=O)c1cnns1)C(=O)N1CCN(C)CC1` [Compound 526] here?
A: 10 to 100 nM

Q: With `CCC(=O)N[C@@H](C(=O)N1CCN(C)CC1)[C@@H](C)c1ccc(NC(=O)[C@@H](NC(=O)c2nnnn2CC)[C@H]2CC[C@H](C)CC2)c(F)c1` [Compound 527] as the compound, how does the IC50 read?
A: 10 to 100 nM

Q: Which IC50 does the source give for `CCC(=O)N[C@@H](C(=O)N1CCN(C)CC1)[C@@H](C)c1ccc(NC(=O)[C@@H](NC(=O)C(F)(F)c2cncc(C#N)c2)[C@H]2CC[C@H](C)CC2)c(F)c1` [Compound 530] here?
A: < 10 nM

Q: For `CCC(=O)N[C@@H](C(=O)N1CCC(O)CC1)[C@@H](C)c1ccc(NC(=O)[C@@H](NC(=O)c2cnn(C3CCCC3)c2)[C@H]2CC[C@H](C)CC2)c(F)c1` [Compound 531], which IC50 is on record?
A: 10 to 100 nM

Q: For `CCC(=O)N[C@@H](C(=O)N1CCN(Cc2ccccc2)CC1)[C@@H](C)c1ccc(NC(=O)[C@@H](NC(=O)C(F)(F)c2cncc(OC)c2)[C@H]2CC[C@H](C)CC2)c(F)c1` [Compound 532], which IC50 is on record?
A: 10 to 100 nM

Q: How did the IC50 turn out when `CCC(=O)N[C@@H](C(=O)N1CCC(C)(O)CC1)[C@@H](C)c1ccc(NC(=O)[C@@H](NC(=O)C(F)(F)c2cnn(CC)c2)[C@H]2CC[C@H](C)CC2)c(F)c1` [Compound 533] was run?
A: < 10 nM

Q: Which IC50 does the source give for `CCC(=O)N[C@@H](C(=O)N1CCC(F)(F)CC1)[C@@H](C)c1ccc(NC(=O)[C@@H](NC(=O)c2conc2C(C)(C)N)[C@H]2CC[C@H](C)CC2)c(F)c1` [Compound 534] here?
A: 10 to 100 nM

Q: `CCn1nccc1C(=O)N[C@H](C(=O)Nc1ccc([C@H](C)[C@@H](NC(=O)C2CC2)C(=O)N2CCN(C)CC2)cc1F)C1CCCCCC1` [Compound 535] was tested. Which IC50 did it give?
A: < 10 nM

Q: Which IC50 does the source give for `C[C@@H](c1ccc(NC(=O)[C@@H](NC(=O)C(F)(F)C2CC2)C2CCCCCC2)c(F)c1)[C@@H](NC(=O)c1cnns1)C(=O)N1CCN(C)CC1` [Compound 536] here?
A: 10 to 100 nM

Q: Which IC50 does the source give for `CCC(=O)N[C@@H](C(=O)N[C@@H](C)C1CC1)[C@@H](C)c1ccc(NC(=O)[C@@H](NC(=O)c2ccnn2CC)C2CCCCCC2)c(F)c1` [Compound 537] here?
A: 10 to 100 nM

Q: For `CCC(=O)N[C@@H](C(=O)NCC1CCC1)[C@@H](C)c1ccc(NC(=O)[C@@H](NC(=O)c2ccnn2CC)C2CCCCCC2)c(F)c1` [Compound 538], which IC50 is on record?
A: < 10 nM

Q: How did the IC50 turn out when `[2H]C([2H])([2H])N1CCN(C(=O)[C@H](NC(=O)CC)[C@@H](C)c2ccc(NC(=O)[C@@H](NC(=O)c3ccnn3CC)[C@H]3CC[C@H](C)CC3)c(F)c2)CC1` [Compound 539] was run?
A: < 10 nM

Q: How did the “IL-17A/A inhibition (pIC50)” value turn out when `CCC(=O)N[C@H](Cc1ccc(NC(=O)[C@@H](Nc2nccn3nccc23)C2CCCCC2)c(F)c1)C(=O)N1CCN(C)CC1` [Compound 540] was run?
A: X2b (compounds were evaluated up to 1 uM and inhibited activity at 1 uM by less than 20%)

Q: With `CCC(=O)N[C@@H](C(=O)N1CCN(C)CC1)[C@@H](C)c1ccc(NC(=O)[C@H](NC(=O)c2ccnn2CC)[C@H]2CC[C@H](C)CC2)c(F)c1` [Compound 541] as the compound, how does the “IL-17A/A inhibition (pIC50)” value read?
A: X3b (compounds were evaluated up to 0.3 uM and inhibited activity at 0.3 uM by less than 20%)

Q: Which “IL-17A/A inhibition (pIC50)” value does the source give for `CCC(=O)N[C@H](C(=O)N1CCN(C)CC1)[C@H](C)c1ccc(NC(=O)[C@@H](NC(=O)c2ccnn2CC)[C@H]2CC[C@H](C)CC2)c(F)c1` [Compound 542] here?
A: X3b (compounds were evaluated up to 0.3 uM and inhibited activity at 0.3 uM by less than 20%)

Q: With `CCC(=O)N[C@H](C(=O)N1CCN(C)CC1)[C@@H](C)c1ccc(NC(=O)[C@@H](NC(=O)c2ccnn2CC)[C@H]2CC[C@H](C)CC2)c(F)c1` [Compound 543] as the compound, how does the “IL-17A/A inhibition (pIC50)” value read?
A: X3b (compounds were evaluated up to 0.3 uM and inhibited activity at 0.3 uM by less than 20%)

Q: Which “IL-17A/A inhibition (pIC50)” value does the source give for `CCC(=O)N[C@@H](C(=O)N1CCN(C)CC1)[C@H](C)c1ccc(NC(=O)[C@@H](NC(=O)c2ccnn2CC)[C@H]2CC[C@H](C)CC2)c(F)c1` [Compound 544] here?
A: X3a (compounds were evaluated up to 0.3 uM and did not inhibit activity by >80%, however they showed some activity at 0.3 uM (less than 80% and more than 20%))

Q: With `CCC(=O)N[C@@H](C(=O)N1CCN(C)CC1)[C@@H](C)c1ccc(NC(=O)[C@@H](NC(=O)c2ccnn2C2COC2)[C@H]2CC[C@H](C)CC2)c(F)c1` [Compound 545] as the compound, how does the IC50 read?
A: 10 to 100 nM

Q: With `C[C@@H](c1ccc(NC(=O)[C@@H](NC(=O)c2ccnn2C2COC2)[C@H]2CC[C@H](C)CC2)c(F)c1)[C@@H](NC(=O)c1cnns1)C(=O)N1CCN(C)CC1` [Compound 546] as the compound, how does the IC50 read?
A: 10 to 100 nM

Q: With `CCC(=O)N[C@@H](C(=O)N1CCN(C)CC1)[C@@H](C)c1ccc(NC(=O)[C@@H](NC(=O)c2cnon2)[C@H]2CC[C@H](C)CC2)c(F)c1` [Compound 547] as the compound, how does the “IL-17A/A inhibition (pIC50)” value read?
A: X3b (compounds were evaluated up to 0.3 uM and inhibited activity at 0.3 uM by less than 20%)

Q: For `C[C@@H](c1ccc(NC(=O)[C@@H](NC(=O)c2cnon2)[C@H]2CC[C@H](C)CC2)c(F)c1)[C@@H](NC(=O)c1cnns1)C(=O)N1CCN(C)CC1` [Compound 548], which “IL-17A/A inhibition (pIC50)” value is on record?
A: X2b (compounds were evaluated up to 1 uM and inhibited activity at 1 uM by less than 20%)

Q: Which IC50 does the source give for `CCC(=O)N[C@@H](C(=O)N1CCN(C)CC1)[C@@H](C)c1ccc(NC(=O)[C@@H](NC(=O)c2nonc2C(C)C)[C@H]2CC[C@H](C)CC2)c(F)c1` [Compound 549] here?
A: < 10 nM

Q: `CC(C)c1nonc1C(=O)N[C@H](C(=O)Nc1ccc([C@H](C)[C@@H](NC(=O)c2cnns2)C(=O)N2CCN(C)CC2)cc1F)[C@H]1CC[C@H](C)CC1` [Compound 550] was tested. Which IC50 did it give?
A: < 10 nM

Q: With `CCC(=O)N[C@@H](C(=O)N1CCN(C)CC1)[C@@H](C)c1ccc(NC(=O)[C@@H](NC(=O)c2nonc2OC)[C@H]2CC[C@H](C)CC2)c(F)c1` [Compound 551] as the compound, how does the IC50 read?
A: 10 to 100 nM

Q: For `COc1nonc1C(=O)N[C@H](C(=O)Nc1ccc([C@H](C)[C@@H](NC(=O)c2cnns2)C(=O)N2CCN(C)CC2)cc1F)[C@H]1CC[C@H](C)CC1` [Compound 552], which IC50 is on record?
A: 10 to 100 nM

Q: For `CCC(=O)N[C@@H](C(=O)N1CCN(C)CC1)[C@@H](C)c1ccc(NC(=O)C(NC(=O)c2nonc2CC)C(CC)c2ccc(Cl)cc2)c(F)c1` (stereo partly drawn) [Compound 566], which IC50 is on record?
A: 10 to 100 nM

Q: Which “IL-17A/A inhibition (pIC50)” value does the source give for `CCC(=O)N[C@@H](C(=O)N1CCN(C)CC1)[C@@H](C)c1ccc(NC(=O)C(NC(=O)c2nonc2CC)C(CC)c2ccc(Cl)cc2)c(F)c1` (stereo partly drawn) [Compound 567] here?
A: X2b (compounds were evaluated up to 1 uM and inhibited activity at 1 uM by less than 20%)

Q: With `CCC(=O)N[C@@H](C(=O)N1CCN(C)CC1)C(OC)c1ccc(NC(=O)[C@@H](NC(=O)c2ccnn2CC)[C@H]2CC[C@H](C)CC2)c(F)c1` (stereo partly drawn) [Compound 572] as the compound, how does the IC50 read?
A: 100 to 10000 nM

Q: Which IC50 does the source give for `[2H]C1([2H])N(C)C([2H])([2H])C([2H])([2H])N(C(=O)[C@H](NC(=O)CC)[C@@H](C)c2ccc(NC(=O)[C@@H](NC(=O)c3ccnn3CC)[C@H]3CC[C@H](C)CC3)c(F)c2)C1([2H])[2H]` [Compound 573] here?
A: < 10 nM

Q: Which IC50 does the source give for `CCc1nonc1C(=O)N[C@H](C(=O)Nc1ccc([C@H](C)[C@@H](NC(=O)N(CC)C2CC2)C(=O)N2CCN(C)CC2)cc1F)[C@H]1CC[C@H](C)CC1` [Compound 574] here?
A: < 10 nM

Q: With `CCc1nonc1C(=O)N[C@H](C(=O)Nc1ccc([C@H](C)[C@@H](NC(=O)c2ncns2)C(=O)N2CCN(C)CC2)cc1F)[C@H]1CC[C@H](C)CC1` [Compound 575] as the compound, how does the “IL-17A/A inhibition (pIC50)” value read?
A: X3a (compounds were evaluated up to 0.3 uM and did not inhibit activity by >80%, however they showed some activity at 0.3 uM (less than 80% and more than 20%))

Q: Which IC50 does the source give for `CCc1nonc1C(=O)N[C@H](C(=O)Nc1ccc([C@H](C)[C@@H](NC(=O)c2cccnc2OC)C(=O)N2CCN(C)CC2)cc1F)[C@H]1CC[C@H](C)CC1` [Compound 576] here?
A: 10 to 100 nM

Q: For `CCc1nonc1C(=O)N[C@H](C(=O)Nc1ccc([C@H](C)[C@@H](NC(=O)c2c(OC)cnn2CC)C(=O)N2CCN(C)CC2)cc1F)[C@H]1CC[C@H](C)CC1` [Compound 577], which IC50 is on record?
A: 10 to 100 nM

Q: With `CCc1nonc1C(=O)N[C@H](C(=O)Nc1ccc([C@H](C)[C@@H](NC(=O)c2ncccc2OC)C(=O)N2CCN(C)CC2)cc1F)[C@H]1CC[C@H](C)CC1` [Compound 578] as the compound, how does the “IL-17A/A inhibition (pIC50)” value read?
A: X3b (compounds were evaluated up to 0.3 uM and inhibited activity at 0.3 uM by less than 20%)

Q: For `CCc1nonc1C(=O)N[C@H](C(=O)Nc1ccc([C@H](C)[C@@H](NC(=O)c2ccnc3c2OCCO3)C(=O)N2CCN(C)CC2)cc1F)[C@H]1CC[C@H](C)CC1` [Compound 579], which IC50 is on record?
A: 10 to 100 nM
